According to patent US10519152B2, “Compounds and their use in treating cancer” (AstraZeneca AB, priority 2017, dated 2019):

Target: T1, Estrogen Receptor (ERα) in MCF-7 human ductal carcinoma breast cell line (Homo sapiens, UniProt P03372)
T1 construct: endogenous in cells; host or cells: MCF-7
T1 sequence (P03372 1-595): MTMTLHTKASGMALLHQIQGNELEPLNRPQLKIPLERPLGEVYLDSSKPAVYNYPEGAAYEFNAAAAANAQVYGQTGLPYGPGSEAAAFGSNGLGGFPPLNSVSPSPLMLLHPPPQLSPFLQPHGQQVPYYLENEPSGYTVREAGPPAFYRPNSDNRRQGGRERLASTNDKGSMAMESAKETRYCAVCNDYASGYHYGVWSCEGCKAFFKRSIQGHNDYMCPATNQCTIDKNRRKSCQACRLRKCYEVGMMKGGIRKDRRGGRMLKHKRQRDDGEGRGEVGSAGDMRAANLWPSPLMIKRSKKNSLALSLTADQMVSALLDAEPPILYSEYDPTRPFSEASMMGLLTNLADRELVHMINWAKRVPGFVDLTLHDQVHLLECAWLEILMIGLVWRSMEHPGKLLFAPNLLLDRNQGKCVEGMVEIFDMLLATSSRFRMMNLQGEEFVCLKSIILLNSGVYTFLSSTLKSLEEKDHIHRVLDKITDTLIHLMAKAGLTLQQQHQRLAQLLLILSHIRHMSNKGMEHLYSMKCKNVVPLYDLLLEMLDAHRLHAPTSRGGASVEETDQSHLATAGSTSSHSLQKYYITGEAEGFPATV
Assay: MCF-7 ER degradation assay (cell based immuno-fluorescence)
Details: MCF-7 cells; for ER degradation ≥ 90% at 0.3 μM: ER degradation by fulvestrant at 0.3 μM is defined as 100%; for DC50: 18-22 hours incubation, 50% reduction of ERα expression, single experiment or average of two or more, read-out: MCF-7 ER degradation IC50
In short: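 MCF-7 human ductal carcinoma breast cells were seeded at 3.75×10^4 cells per mL (40 μL per well) in 384 well plates with phenol red free DMEM containing 2 mM L-Glutamine and 5% (v/v) Charcoal/Dextran treated foetal calf serum. After overnight culture, compounds were acoustically dispensed, incubated 18-22 hours, then cells were formaldehyde-fixed and immunostained for ERα.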

Structure (SMILES)	ER degradation ≥ 90% at 0.3 μM	DC50 [nM]
Cc1ncsc1-c1ccc([C@H](C)NC(=O)[C@@H]2C[C@@H](O)CN2C(=O)[C@@H](NC(=O)COCCOCCCCOc2cc(F)c([C@@H]3c4[nH]c5ccccc5c4C[C@@H](C)N3CC(C)(C)F)c(F)c2)C(C)(C)C)cc1 [Example 153, (2S,4R)-1-((S)-2-(2-(2-(4-(3,5-Difluoro-4-((1R,3R)-2-(2-fluoro-2-methylpropyl)-3-methyl-2,3,4,9-tetrahydro-1H-pyrido[3,4-b]indol-1-yl)phenoxy)butoxy)ethoxy)acetamido)-3,3-dimethylbutanoyl)-4-hydroxy-N—((S)-1-(4-(4-methylthiazol-5-yl)phenyl)ethyl)pyrrolidine-2-carboxamide]	••	0.4
Cc1ncsc1-c1ccc(CNC(=O)[C@@H]2C[C@@H](O)CN2C(=O)[C@@H](NC(=O)C2(OCCCCCCOc3cc(F)c([C@@H]4c5[nH]c6ccccc6c5C[C@@H](C)N4CC(C)(C)F)c(F)c3)CC2)C(C)(C)C)cc1 [Example 118, (2S,4R)-1-((S)-2-(1-((6-(3,5-difluoro-4-((1R,3R)-2-(2-fluoro-2-methylpropyl)-3-methyl-2,3,4,9-tetrahydro-1H-pyrido[3,4-b]indol-1-yl)phenoxy)hexyl)oxy)cyclopropane-1-carboxamido)-3,3-dimethylbutanoyl)-4-hydroxy-N-(4-(4-methylthiazol-5-yl)benzyl)pyrrolidine-2-carboxamide]	•	4.7
Cc1ncsc1-c1ccc(CNC(=O)[C@@H]2C[C@@H](O)CN2C(=O)[C@@H](NC(=O)COCCCCCN(C)CCOc2cc(F)c([C@@H]3c4[nH]c5ccccc5c4C[C@@H](C)N3CC(C)(C)F)c(F)c2)C(C)(C)C)cc1 [Example 49, (2S,4R)-1-((S)-2-(2-((5-((2-(3,5-difluoro-4-((1R,3R)-2-(2-fluoro-2-methylpropyl)-3-methyl-2,3,4,9-tetrahydro-1H-pyrido[3,4-b]indol-1-yl)phenoxy)ethyl)(methyl)amino)pentyl)oxy)acetamido)-3,3-dimethylbutanoyl)-4-hydroxy-N-(4-(4-methylthiazol-5-yl)benzyl)pyrrolidine-2-carboxamide]	•	0.9
Cc1ncsc1-c1ccc(CNC(=O)[C@@H]2C[C@@H](O)CN2C(=O)[C@@H](NC(=O)CCCCCOCCCCOc2cc(F)c([C@@H]3c4[nH]c5ccccc5c4C[C@@H](C)N3CC(C)(C)F)c(F)c2)C(C)(C)C)cc1 [Example 109, (2S,4R)-1-((S)-2-(6-(4-(3,5-difluoro-4-((1R,3R)-2-(2-fluoro-2-methylpropyl)-3-methyl-2,3,49-tetrahydro-1H-pyrido[3,4-b]indol-1-yl)phenoxy)butoxy)hexanamido)-3,3-dimethylbutanoyl)-4-hydroxy-N-(4-(4-methylthiazol-5-yl)benzyl)pyrrolidine-2-carboxamide]	••	1
Cc1ncsc1-c1ccc([C@H](C)NC(=O)[C@@H]2C[C@@H](O)CN2C(=O)[C@@H](NC(=O)COCCOCCCCCOc2cc(F)c([C@@H]3c4[nH]c5ccccc5c4C[C@@H](C)N3CC(F)(F)F)c(F)c2)C(C)(C)C)cc1 [Example 140, (2S,4R)-1-((S)-2-(2-(2-((5-(3,5-Difluoro-4-((1R,3R)-3-methyl-2-(2,2,2-trifluoroethyl)-2,3,4,9-tetrahydro-1H-pyrido[3,4-b]indol-1-yl)phenoxy)pentyl)oxy)ethoxy)acetamido)-3,3-dimethylbutanoyl)-4-hydroxy-N—((S)-1-(4-(4-methylthiazol-5-yl)phenyl)ethyl)pyrrolidine-2-carboxamide]	••	0.6
Cc1ncsc1-c1ccc(CNC(=O)[C@@H]2C[C@@H](O)CN2C(=O)[C@@H](NC(=O)COCCc2ccc(COc3cc(F)c([C@@H]4c5[nH]c6ccccc6c5C[C@@H](C)N4CC(C)(C)F)c(F)c3)nc2)C(C)(C)C)cc1 [Example 158, (2S,4R)-1-((S)-2-(2-(2-(6-((3,5-Difluoro-4-((1R,3R)-2-(2-fluoro-2-methylpropyl)-3-methyl-2,3,4,9-tetrahydro-1H-pyrido[3,4-b]indol-1-yl)phenoxy)methyl)pyridin-3-yl)ethoxy)acetamido)-3,3-dimethylbutanoyl)-4-hydroxy-N-(4-(4-methylthiazol-5-yl)benzyl)pyrrolidine-2-carboxamide]	•	0.8
Cc1ncsc1-c1ccc(CNC(=O)[C@@H]2C[C@@H](O)CN2C(=O)[C@@H](NC(=O)COCCOCCCCCOc2cnc([C@@H]3c4[nH]c5ccccc5c4C[C@@H](C)N3CC(C)(F)F)c(F)c2)C(C)(C)C)cc1 [Example 164, (2S,4R)-1-((S)-2-(2-(2-((5-((6-((1S,3R)-2-(2,2-Difluoropropyl)-3-methyl-2,3,4,9-tetrahydro-1H-pyrido[3,4-b]indol-1-yl)-5-fluoropyridin-3-yl)oxy)pentyl)oxy)ethoxy)acetamido)-3,3-dimethylbutanoyl)-4-hydroxy-N-(4-(4-methylthiazol-5-yl)benzyl)pyrrolidine-2-carboxamide]	••	4.2
Cc1ncsc1-c1ccc(CNC(=O)[C@@H]2C[C@@H](O)CN2C(=O)[C@@H](NC(=O)COCCCCCCCOc2cc(F)c([C@@H]3c4[nH]c5ccccc5c4C[C@@H](C)N3CC(C)(C)F)c(F)c2)C(C)(C)C)cc1 [Example 7, (2S,4R)-1-((S)-2-(2-((7-(3,5-Difluoro-4-((1R,3R)-2-(2-fluoro-2-methylpropyl)-3-methyl-2,3,4,9-tetrahydro-1H-pyrido[3,4-b]indol-1-yl)phenoxy)heptyl)oxy)acetamido)-3,3-dimethylbutanoyl)-4-hydroxy-N-(4-(4-methylthiazol-5-yl)benzyl)pyrrolidine-2-carboxamide]	••	1.6
Cc1ncsc1-c1ccc(CNC(=O)[C@@H]2C[C@@H](O)CN2C(=O)[C@@H](NC(=O)COCCCOCCCCCOc2cc(F)c([C@@H]3c4[nH]c5ccccc5c4C[C@@H](C)N3CC(C)(C)F)c(F)c2)C(C)(C)C)cc1 [Example 138, (2S,4R)-1-((S)-2-(2-(3-((5-(3,5-Difluoro-4-((R,3R)-2-(2-fluoro-2-methylpropyl)-3-methyl-2,3,4,9-tetrahydro-1H-pyrido[3,4-b]indol-1-yl)phenoxy)pentyl)oxy)propoxy)acetamido)-3,3-dimethylbutanoyl)-4-hydroxy-N-(4-(4-methylthiazol-5-yl)benzyl)pyrrolidine-2-carboxamide]	••	1.1
Cc1ncsc1-c1ccc(CNC(=O)[C@@H]2C[C@@H](O)CN2C(=O)[C@@H](NC(=O)CCCOc2ccc(COc3cc(F)c([C@@H]4c5[nH]c6ccccc6c5C[C@@H](C)N4CC(C)(C)F)c(F)c3)nc2)C(C)(C)C)cc1 [Example 161, (2S,4R)-1-((S)-2-(4-((6-((3,5-Difluoro-4-((1R,3R)-2-(2-fluoro-2-methylpropyl)-3-methyl-2,3,4,9-tetrahydro-1H-pyrido[3,4-b]indol-1-yl)phenoxy)methyl)pyridin-3-yl)oxy)butanamido)-3,3-dimethylbutanoyl)-4-hydroxy-N-(4-(4-methylthiazol-5-yl)benzyl)pyrrolidine-2-carboxamide]	•	1.2
Cc1ncsc1-c1ccc([C@H](C)NC(=O)[C@@H]2C[C@@H](O)CN2C(=O)[C@@H](NC(=O)C(F)(F)OCCCOCCCOc2cc(F)c([C@@H]3c4[nH]c5ccccc5c4C[C@@H](C)N3CC(C)(C)F)c(F)c2)C(C)(C)C)cc1 [Example 120, (2S,4R)-1-((S)-2-(2-(3-(3-(3,5-Difluoro-4-((1R,3R)-2-(2-fluoro-2-methylpropyl)-3-methyl-2,3,4,9-tetrahydro-1H-pyrido[3,4-b]indol-1-yl)phenoxy)propoxy)propoxy)-2,2-difluoroacetamido)-3,3-dimethylbutanoyl)-4-hydroxy-N—((S)-1-(4-(4-methylthiazol-5-yl)phenyl)ethyl)pyrrolidine-2-carboxamide]	••	1.6
Cc1ncsc1-c1ccc(CNC(=O)[C@@H]2C[C@@H](O)CN2C(=O)[C@@H](NC(=O)COCCCCCCCCOc2ccc([C@@H]3c4[nH]c5ccccc5c4C[C@@H](C)N3CC(F)F)nc2)C(C)(C)C)cc1 [Example 13, (2S,4R)-1-((S)-2-(2-((8-((6-((1S,3R)-2-(2,2-Difluoroethyl)-3-methyl-2,3,4,9-tetrahydro-1H-pyrido[3,4-b]indol-1-yl)pyridin-3-yl)oxy)octyl)oxy)acetamido)-3,3-dimethylbutanoyl)-4-hydroxy-N-(4-(4-methylthiazol-5-yl)benzyl)pyrrolidine-2-carboxamide]	•	3.7
